The values below come from ChEMBL document CHEMBL4732126, “Design, synthesis, and biodistribution studies of new analogues of marine alkaloids: Potent in vitro and in vivo fungicidal agents against Candida spp” (Eur J Med Chem, 2021).

In data set [1] the test system is Candida albicans. Put plainly: Fungicidal activity against Candida albicans isolate 1 assessed as fungal killing incubated for 48 hrs followed by plating on SD agar plate. Conditions: read-out: MFC99.9. In kind it is functional.
The subject of data set [2] is Candida albicans. Put plainly: In vivo antifungal activity in Swiss mouse infected with Candida albicans ATCC 10231 assessed as reduction in fungal load in liver at 10 mg/kg, ip administered at 2, 24 and 48 hrs post-infection and measured per gm of organ at 24 hrs post-last dose (reference value: 1.80). Format: functional. To be noted: time 72 hrs.
Data set [3] deals with Candida albicans. Nature of the data set: In vivo antifungal activity in Swiss mouse infected with Candida albicans ATCC 10231 assessed as reduction in fungal load in liver at 1 mg/kg, ip administered at 2, 24 and 48 hrs post-infection and measured per gm of organ at 24 hrs post-last dose (reference value: 1.80). Format: functional. To be noted: time 72.0 hrs.
A short description of data set [4]: Toxicity in Swiss mouse assessed as relative liver weight at 1 mg/kg, ip measured after 24 hrs (reference value: 49.42 +/- 7.17 g). In kind it is organism-based. Conditions: in vivo.
In data set [5] the test system is Candida albicans. Nature of the data set: Antifungal activity against Candida albicans isolate 2 assessed as reduction in fungal growth incubated for 48 hrs by broth microdilution method. Format: functional.
For data set [6], the system named is Candida albicans. Put plainly: Fungicidal activity against Candida albicans isolate 4 assessed as fungal killing incubated for 48 hrs followed by plating on SD agar plate. To be noted: read-out: MFC99.9. In kind it is functional.
The subject of data set [7] is Candida albicans. Nature of the data set: In vivo antifungal activity in Swiss mouse infected with Candida albicans ATCC 10231 assessed as reduction in fungal load in spleen at 1 mg/kg, ip administered at 2, 24 and 48 hrs post-infection and measured per gm of organ at 24 hrs post-last dose (reference value: 2.34). To be noted: time 72.0 hrs. Format: functional.
The test system of data set [8] is Candida albicans. Nature of the data set: Antifungal activity against Candida albicans isolate 4 assessed as reduction in fungal growth incubated for 48 hrs by broth microdilution method. Format: functional. (In general: In broth dilution the organism is exposed to a series of concentrations in liquid medium.)
Data set [9] is described as follows: Toxicity in Swiss mouse assessed as relative spleen weight at 1 mg/kg, ip measured after 24 hrs (reference value: 4.02 +/- 0.59 g). Format: organism-based. Conditions: in vivo.
Data set [10] relates to Candida albicans. Nature of the data set: Antifungal activity against Candida albicans isolate 5 assessed as reduction in fungal growth incubated for 48 hrs by broth microdilution method. In kind it is functional.
Data set [11] in a line: Toxicity in Swiss mouse assessed as relative lung weight at 1 mg/kg, ip measured after 24 hrs (reference value: 6.35 +/- 0.68 g). In kind it is organism-based. To be noted: in vivo.
Data set [12] in a line: Toxicity in Swiss mouse assessed as body weight at 1 mg/kg, ip measured after 24 hrs (reference value: 36.25 +/- 0.31 g). Format: organism-based. To be noted: in vivo.
The subject of data set [13] is Candida albicans. Nature of the data set: In vivo antifungal activity in Swiss mouse infected with Candida albicans ATCC 10231 assessed as reduction in fungal load in spleen at 10 mg/kg, ip administered at 2, 24 and 48 hrs post-infection and measured per gm of organ at 24 hrs post-last dose (reference value: 2.34). Format: functional, organism-based. To be noted: time 72.0 hrs.

The nature of data set [14]: Toxicity in Swiss mouse assessed as relative kidney weight at 1 mg/kg, ip measured after 24 hrs (reference value: 14.91 +/- 0.99 g). In kind it is organism-based. To be noted: in vivo.
Data set [15] relates to Candida albicans. Nature of the data set: Antifungal activity against Candida albicans isolate 3 assessed as reduction in fungal growth incubated for 48 hrs by broth microdilution method. In kind it is functional.
The subject of data set [16] is Candida albicans. Nature of the data set: In vivo antifungal activity in Swiss mouse infected with Candida albicans ATCC 10231 assessed as reduction in fungal load in kidney at 1 mg/kg, ip administered at 2, 24 and 48 hrs post-infection and measured per gm of organ at 24 hrs post-last dose (reference value: 2.47). Conditions: time 72.0 hrs. In kind it is functional.

Data set [17] is described as follows: Toxicity in Swiss mouse assessed as relative heart weight at 1 mg/kg, ip measured after 24 hrs (reference value: 4.75 +/- 0.60 g). In kind it is organism-based. Conditions: in vivo.
In data set [18] the test system is Candida albicans. Put plainly: Fungicidal activity against Candida albicans isolate 3 assessed as fungal killing incubated for 48 hrs followed by plating on SD agar plate. Conditions: read-out: MFC99.9. Format: functional.
For data set [19], the system named is Candida albicans. Put plainly: In vivo antifungal activity in Swiss mouse infected with Candida albicans ATCC 10231 assessed as reduction in fungal load in kidney at 10 mg/kg, ip administered at 2, 24 and 48 hrs post-infection and measured per gm of organ at 24 hrs post-last dose (reference value: 2.47). In kind it is functional, organism-based. Conditions: time 72.0 hrs.

The test system of data set [20] is Candida albicans. Nature of the data set: Antifungal activity against Candida albicans isolate 1 assessed as reduction in fungal growth incubated for 48 hrs by broth microdilution method. In kind it is functional.
In data set [21] the test system is Candida albicans. Put plainly: Fungicidal activity against Candida albicans ATCC 10231 assessed as reduction in fungal load at 1 ug/ml incubated for 8 hrs followed by inoculation on SD agar plate for 48 hrs by time-kill assay. Format: functional, organism-based. Conditions: dose 1.0 µg/ml, time 56.0 hrs.
Data set [22] concerns Candida albicans. Nature of the data set: Fungicidal activity against Candida albicans isolate 2 assessed as fungal killing incubated for 48 hrs followed by plating on SD agar plate. Conditions: read-out: MFC99.9. In kind it is functional.
Data set [23] concerns Candida albicans. Nature of the data set: Fungicidal activity against Candida albicans isolate 5 assessed as fungal killing incubated for 48 hrs followed by plating on SD agar plate. Format: functional. Conditions: read-out: MFC99.9.

≈ marks a conversion by molar mass, not a printed value. Calls of active or inactive are those of the source. The rule behind the calls is not given here.

In general, MIC refers to the lowest concentration that inhibits growth of the organism.

In the case of `C[C@@H]1[C@H](O)[C@@H](C)/C=C/C=C/C=C/C=C/C=C/C=C/C=C/[C@H](O[C@@H]2O[C@H](C)[C@@H](O)[C@H](N)[C@@H]2O)C[C@@H]2O[C@](O)(C[C@@H](O)C[C@@H](O)[C@H](O)CC[C@@H](O)C[C@@H](O)CC(=O)O[C@H]1C)C[C@H](O)[C@H]2C(=O)O` [AMPHOTERICIN B], the MFC is 78.1 µg/mL (≈ 84.5 µM) in [1]; 625 µg/mL (≈ 676 µM) in data set [6]; 39 µg/mL (≈ 42.2 µM) in [18]; 312 µg/mL (≈ 338 µM) in [22]; 78.1 µg/mL (≈ 84.5 µM) in [23]. Besides, the Activity is 1.51 log10CFU in data set [2]; 49.34 g in [4]; 4.14 g in data set [9]; 6.51 g in data set [11]; 31.12 g in data set [12]; 15.56 g in [14]. Besides, in [17], the Activity is recorded as 5.94 g. Besides, the outcome in [3], in data set [7], in [13], in [16], in [19] and in data set [21] was Active. The minimal inhibitory concentration (MIC) turned out to be 39 µg/mL (≈ 42.2 µM) in [5]; 156 µg/mL (≈ 169 µM) in data set [8]; 39 µg/mL (≈ 42.2 µM) in data set [10]; 39 µg/mL (≈ 42.2 µM) in [15]; 39 µg/mL (≈ 42.2 µM) in [20].
